From US20230056205A1, “SUBSTITUTED 4,6-DIHYDROSPIRO[[1,2,3]TRIAZOLO[4,5-B]PYRIDINE-7,3'-INDOLINE]-2',5(3H)-DIONE ANALOGUES” (The Board of Regents of The University of Texas System, priority 2019, published 2023) come the findings set out here.

Usually pEC50 stands for the EC50 on a negative log10 scale, so that one unit is a factor of ten. By CC50 is commonly meant the concentration at which the toxic effect on the cells reaches its halfway point. Read a low CC50 as harm at low concentration.

Data set [1] deals with DENV-1 replicon. In words: Luciferase reporter replicon-based screening, DENV-1. The format is cell-based, DENV-1 (strain WestPac). The following applies: Dengue virus, DENV1, Huh-7, 48 h, read-out: EC50 DENV-1. The procedure: (§1) Luciferase Reporter Replicon-Based Screening. Huh7 cells containing a luciferase reporter replicon of DENV-1 (strain WestPac), DENV-2 (New Guinea C strain, NGC), DENV-3 (strain D3MY05-34640) and DENV-4 (strain D4MY01-22713) were used in this study. The replicon cells containing the Renilla luciferase and neomycin-resistance genes were generated using a similar strategy as described previously.^55 Briefly, Huh7 DENV-1 to -4 replicon cells were seeded at a density of 10k per well in a 96-well microplate. After incubation at 37° C. with 5% CO2 overnight, the cells were treated with 2-fold serial dilutions of compounds. Experiments were performed in duplicates. After 48 h of incubation, luciferase activities were measured using the EnduRen live-cell substrate (Promega) by following the manufacturer’s instructions. The dose-dependent curve was plotted and EC50 values were calculated using four parameter logistic regression in GraphPad software Prism 8.0.

Data set [2] concerns DENV-2 replicon. In words: Luciferase reporter replicon-based screening, DENV-2. The format is cell-based, DENV-2 (New Guinea C strain, NGC). The method, then:
as §1
A general note: In a reporter assay the amount or activity of a reporter protein is the signal.

For data set [3], the system named is DENV-3 replicon. In words: Luciferase reporter replicon-based screening, DENV-3. It is filed as cell-based, DENV-3 (strain D3MY05-34640). The procedure:
as §1

The subject of data set [4] is DENV-4 replicon. In words: Luciferase reporter replicon-based screening, DENV-4. The following applies: Dengue virus, DENV4, Huh-7, 48 h, read-out: EC50 DENV-4. The format is cell-based, DENV-4 (strain D4MY01-22713). The method, then:
as §1

The nature of data set [5]: Cytotoxicity assay (CellTiter-Glo). It is filed as cell-based. The note with it: human, Huh7 cells stably expressing DENV-2 replicon. The method, then: Cytotoxicity Assay. Huh7 cells or Huh7 replicon cells were seeded in a 96-well plate. After incubation at 37° C. with 5% CO2 overnight, the cells were treated with 2-fold serial dilutions of compounds. Experiments were performed in duplicates. After 48 h of incubation, cell viability was measured by adding the CellTiter-Glo reagent (Promega) to each well. The cell viability in 0.45% DMSO-treatment groups was treated at 100%. The cell viability in compound-treated wells was normalized to that of DMSO-treated wells. CC50 values were calculated using four parameter logistic regression in GraphPad software Prism 8.0.
Background: In ATP-based viability assays light output follows the ATP content of the culture.

[6] abbreviates: Dengue virus, DENV2, Huh-7, 48 h, read-out: EC50 DENV-2, Huh7 cells stably expressing DENV-2 replicon, 48 h.
Where [7] appears, read: Dengue virus, DENV3, Huh-7, 48 h, read-out: EC50 DENV-3, Huh7 cells stably expressing DENV-3 replicon, 48 h.

pEC50: −log10 of the molar value. Like-named read-outs stand apart in the source and are kept apart here.

As to `C[C@@H](c1ccc(Cl)cc1)n1nnc2c1NC(=O)C[C@]21C(=O)N(CCCCCCCCN(C)C)c2ccc(Cl)cc21` [Compound 69, (R)-5'-Chloro-3-((S)-1-(4-chlorophenyl)ethyl)-1'-(8-(dimethylamino)octyl)-4,6-dihydrospiro[[1,2,3]triazolo[4,5-b]pyridine-7,3'-indoline]-2',5(3H)-dione], the pEC50 in data set [1] is less than 5.30; in data set [2] (setting [6]) it was 6.31; in data set [3] (setting [7]), 7.38; in data set [4], less than 5.30. Besides, the CC50 at 48 h in data set [5] is more than 10 µM.
As for `Cc1ccc(CN2C(=O)[C@]3(CC(=O)Nc4c3nnn4[C@@H](C)c3ccc(Cl)cc3)c3cc(Cl)ccc32)cn1` [Compound 37, (R)-5'-Chloro-3-((S)-1-(4-chlorophenyl)ethyl)-1'-((6-methylpyridin-3-yl)methyl)-4,6-dihydrospiro[[1,2,3]triazolo[4,5-b]pyridine-7,3'-indoline]-2',5(3H)-dione], the pEC50 in data set [1] was less than 5.30; in data set [2] (setting [6]), 6.82; in data set [3] (setting [7]), 7.96; in data set [4], less than 5.30. Further, in data set [5], the CC50 at 48 h is more than 10 µM.
Regarding `CCCN1C(=O)[C@]2(CC(=O)Nc3c2nnn3[C@@H](C)c2ccc(Cl)cc2)c2cc(Cl)ccc21` [Compound 9, (R)-5'-Chloro-3-((S)-1-(4-chlorophenyl)ethyl)-1'-propyl-4,6-dihydrospiro[[1,2,3]triazolo[4,5-b]pyridine-7,3'-indoline]-2',5(3H)-dione], the pEC50 in data set [1] was 5.72; in data set [2] (setting [6]) it was 7.15; in data set [3] (setting [7]) it was 8.00; in data set [4], less than 5.30. The compound further showed a CC50 at 48 h in data set [5] of more than 10 µM.
Taken in the same sequence, the figures for `CCN1C(=O)[C@]2(CC(=O)Nc3c2nnn3[C@@H](C)c2ccc(Cl)cc2)c2cc(Cl)ccc21` [Compound 8, (R)-5'-Chloro-3-((S)-1-(4-chlorophenyl)ethyl)-1'-ethyl-4,6-dihydrospiro[[1,2,3]triazolo[4,5-b]pyridine-7,3'-indoline]-2',5(3H)-dione] were 5.60, 7.62, 8.22, less than 5.30 and more than 10 µM.
As to `C[C@@H](c1ccc(Cl)cc1)n1nnc2c1N(C)C(=O)C(C)(C)[C@]21C(=O)N(C)c2ccc(Cl)cc21` [Compound 23, (S)-5'-Chloro-3-((S)-1-(4-chlorophenyl)ethyl)-1ʹ,4,6,6-tetramethyl-4,6-dihydrospiro[[1,2,3]triazolo[4,5-b]pyridine-7,3ʹ-indoline]-2ʹ,5(3H)-dione], the pEC50 in data set [1], in data set [2] (setting [6]), in data set [3] (setting [7]) and in data set [4] was less than 5.30 each time. The same compound yielded a CC50 at 48 h in data set [5] of more than 10 µM.
On to `C[C@@H](c1ccc(Cl)cc1)n1nnc2c1NC(=O)C[C@]21C(=O)N(CCCCCCCCCCN(C)C)c2ccc(Cl)cc21` [Compound 70, (R)-5'-Chloro-3-((S)-1-(4-chlorophenyl)ethyl)-1'-(10-(dimethylamino)decyl)-4,6-dihydrospiro[[1,2,3]triazolo[4,5-b]pyridine-7,3'indoline]-2',5(3H)-dione], for which the pEC50 in data set [1] was 5.57; in data set [2] (setting [6]), 5.46; in data set [3] (setting [7]) it was 7.01; in data set [4], 5.46. In addition, the CC50 at 48 h in data set [5] was more than 10 µM.
For `CCCCCCCCCCN1C(=O)[C@]2(CC(=O)Nc3c2nnn3[C@@H](C)c2ccc(Cl)cc2)c2cc(Cl)ccc21` [Compound 12, (R)-5'-Chloro-3-((S)-1-(4-chlorophenyl)ethyl)-1'-decyl-4,6-dihydrospiro[[1,2,3]triazolo[4,5-b]pyridine-7,3'-indoline]-2ʹ,5(3H)-dione], the pEC50 is 5.47 in data set [1], less than 5.00 in data set [2] (setting [6]), 5.92 in data set [3] (setting [7]) and 5.14 in data set [4]. This compound also returned a CC50 at 48 h in data set [5] of more than 10 µM.
For `CC(C)N1C(=O)[C@]2(CC(=O)Nc3c2nnn3[C@@H](C)c2ccc(Cl)cc2)c2cc(Cl)ccc21` [Compound 13, (R)-5'-Chloro-3-((S)-1-(4-chlorophenyl)ethyl)-1'-isopropyl-4,6-dihydrospiro[[1,2,3]triazolo[4,5-b]pyridine-7,3ʹ-indoline]-2',5(3H)-dione] the same measures were 5.24, 7.64, 8.05, less than 5.30 and more than 10 µM.
For `CC#CCN1C(=O)[C@]2(CC(=O)Nc3c2nnn3[C@@H](C)c2ccc(Cl)cc2)c2cc(Cl)ccc21` [Compound 20, (R)-1'-(But-2-yn-1-yl)-5'-chloro-3-((S)-1-(4-chlorophenyl)ethyl)-4,6-dihydrospiro[[1,2,3]triazolo[4,5-b]pyridine-7,3'-indoline]-2',5(3H)-dione] the same measures were less than 5.30, 7.20, 7.70, less than 5.30 and more than 10 µM.
Taken in the same sequence, the figures for `C[C@@H](c1ccc(Cl)cc1)n1nnc2c1NC(=O)C[C@]21C(=O)N(CCCN2CCCCC2)c2ccc(Cl)cc21` [Compound 64, (R)-5'-Chloro-3-((S)-1-(4-chlorophenyl)ethyl)-1'-(3-(piperidin-1-yl)propyl)-4,6-dihydrospiro[[1,2,3]triazolo[4,5-b]pyridine-7,3'-indoline]-2',5(3H)-dione] were less than 5.30, 6.89, 7.92, less than 5.30 and more than 10 µM.
With `COCCCN1C(=O)C[C@]2(C(=O)Nc3ccc(Cl)cc32)c2nnn([C@@H](C)c3ccc(Cl)cc3)c21` [Compound 40, (R)-5'-Chloro-3-((S)-1-(4-chlorophenyl)ethyl)-4-(3-methoxypropyl)-4,6-dihydrospiro[[1,2,3]triazolo[4,5-b]pyridine-7,3-indoline]-2',5(3H)-dione], the pEC50 in data set [1] was less than 5.00; in data set [2] (setting [6]) it was 5.06; in data set [3] (setting [7]) it was 6.04; in data set [4], less than 5.00. Also, the CC50 at 48 h in data set [5] was more than 10 µM.
Turning to `C[C@@H](c1ccc(Cl)cc1)n1nnc2c1NC(=O)C[C@]21C(=O)N(Cc2ccccc2)c2ccc(Cl)cc21` [Compound 24, (R)-1ʹ-Benzyl-5ʹ-chloro-3-((S)-1-(4-chlorophenyl)ethyl)-4,6-dihydrospiro[[1,2,3]triazolo[4,5-b]pyridine-7,3ʹ-indoline]-2ʹ,5(3H)-dione], the pEC50 in data set [1] is 5.70; in data set [2] (setting [6]), 6.54 to 6.85; in data set [2] (read-out: EC50 DENV-2, Huh7 cells stably expressing DENV-2 replicon, 48 h) it was 6.82; in data set [3] (setting [7]), 7.29 to 7.70; in data set [3] (read-out: EC50 DENV-3, Huh7 cells stably expressing DENV-3 replicon, 48 h), 7.70; in data set [4] it was less than 5.30. In data set [5], the half-maximal cytotoxic concentration (CC50) at 48 h was more than 10 µM.
On to `C[C@@H](c1ccc(Cl)cc1)n1nnc2c1NC(=O)C[C@]21C(=O)N(CCN(C)CCS(C)(=O)=O)c2ccc(Cl)cc21` [Compound 60, (R)-5'-Chloro-3-((S)-1-(4-chlorophenyl)ethyl)-1'-(2-(methyl(2-(methylsulfonyl)ethyl)amino)ethyl)-4,6-dihydrospiro[[1,2,3]triazolo[4,5-b]pyridine-7,3'-indoline]-2',5(3H)-dione], for which the pEC50 is less than 5.30 in data set [1], 7.11 in data set [2] (setting [6]), 7.74 in data set [3] (setting [7]) and less than 5.30 in data set [4]. In addition, the CC50 at 48 h in data set [5] was more than 10 µM.
Take `C[C@@H](c1ccc(Cl)cc1)n1nnc2c1NC(=O)C[C@]21C(=O)N(CCCCCCN(C)C)c2ccc(Cl)cc21` [Compound 68, (R)-5'-Chloro-3-((S)-1-(4-chlorophenyl)ethyl)-1'-(6-(dimethylamino)hexyl)-4,6-dihydrospiro[[1,2,3]triazolo[4,5-b]pyridine-7,3'indoline]-2',5(3H)-dione]: the pEC50 in data set [1] is 5.82; in data set [2] (setting [6]), 6.05; in data set [3] (setting [7]), 7.18; in data set [4], less than 5.30. Further, the CC50 at 48 h in data set [5] is more than 10 µM.
On to `C[C@@H](c1ccc(Cl)cc1)n1nnc2c1NC(=O)C[C@]21C(=O)N(C)c2ccc(Cl)cc21` [Compound 7, (R)-5'-Chloro-3-((S)-1-(4-chlorophenyl)ethyl)-1'-methyl-4,6-dihydrospiro[[1,2,3]triazolo[4,5-b]pyridine-7,3'-indoline]-2',5(3H)-dione], for which the pEC50 was less than 5.30 in data set [1], 7.72 in data set [2] (setting [6]), 8.40 in data set [3] (setting [7]) and less than 5.30 in data set [4]. This compound had a CC50 at 48 h in data set [5] of more than 10 µM.
